Reference: US11110082B2, “Tyrosine kinase inhibitors” (Rigel Pharmaceuticals, Inc., priority 2016, dated 2021)

Molecular target: T1, MerTK (Homo sapiens, UniProt Q12866)
T1 construct: Seed HUVECs (10K cells/well) in EBM-2 complete media; host or cells: HUVEC (primary human umbilical vein endothelial cells)
T1 sequence (Q12866 21-999): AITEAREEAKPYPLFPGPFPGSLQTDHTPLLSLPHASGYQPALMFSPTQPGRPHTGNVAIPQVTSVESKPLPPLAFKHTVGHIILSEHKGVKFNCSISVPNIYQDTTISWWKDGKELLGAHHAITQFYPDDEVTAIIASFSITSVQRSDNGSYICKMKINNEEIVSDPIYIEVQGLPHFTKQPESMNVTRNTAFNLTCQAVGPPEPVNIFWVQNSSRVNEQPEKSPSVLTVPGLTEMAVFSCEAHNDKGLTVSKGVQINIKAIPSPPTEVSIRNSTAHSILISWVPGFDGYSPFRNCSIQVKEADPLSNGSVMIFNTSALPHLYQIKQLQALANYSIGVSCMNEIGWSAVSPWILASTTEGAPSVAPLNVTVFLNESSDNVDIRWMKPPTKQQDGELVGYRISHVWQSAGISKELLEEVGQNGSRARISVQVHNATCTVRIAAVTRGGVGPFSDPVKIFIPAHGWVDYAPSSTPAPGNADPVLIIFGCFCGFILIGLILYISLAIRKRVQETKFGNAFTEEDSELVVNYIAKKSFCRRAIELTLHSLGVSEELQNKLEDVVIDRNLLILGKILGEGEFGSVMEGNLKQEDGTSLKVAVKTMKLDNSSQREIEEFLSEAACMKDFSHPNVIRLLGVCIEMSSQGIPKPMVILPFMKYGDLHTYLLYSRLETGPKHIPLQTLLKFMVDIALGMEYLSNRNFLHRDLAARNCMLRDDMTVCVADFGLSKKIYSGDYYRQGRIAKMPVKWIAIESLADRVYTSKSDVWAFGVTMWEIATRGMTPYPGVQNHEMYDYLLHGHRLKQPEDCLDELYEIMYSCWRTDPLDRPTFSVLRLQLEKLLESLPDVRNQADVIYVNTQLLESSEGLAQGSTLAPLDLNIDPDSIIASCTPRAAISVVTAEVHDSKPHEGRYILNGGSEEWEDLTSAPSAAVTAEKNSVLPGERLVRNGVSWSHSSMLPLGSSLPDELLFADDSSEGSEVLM
Experiment: PAKT HTRF-HUVEC assay (pAkt Ser473 HTRF after anti-human MerTK-XL stimulation)
Assay type: cell-based
Details: HUVEC cells, 1 hour compound, stimulated with anti-human MerTK-XL 1 ug/mL for 10 minutes, read-out: inhibition of MerTK
Method in brief: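 Akt Ser473 phosphorylation measured by HTRF in lysates of serum-starved HUVECs. Cells received compound for 1 h at 37° C before a 10-min challenge with antibody-cross-linked anti-MerTK (1 ug/mL final); EC50 derived by curve fit.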

Row | SMILES | EC50 [µM]
1 | O=c1c2cc(N3CCn4ncnc4C3)ccc2c2cnc(NCC3CC3)nc2n1[C@H]1CC[C@H](O)CC1 [Compound 101, trans-3-((Cyclopropylmethyl)amino)-8-(5,6-dihydro-[1,2,4]triazolo[1,5-a]pyrazin-7(8H)-yl)-5-(4-hydroxycyclohexyl)pyrimido [4,5-c]isoquinolin-6(5H)-one] | 0.296
2 | O=c1c2cc(N3CCNCC3)ccc2c2cnc(NCC3CC3)nc2n1[C@H]1CC[C@H](O)CC1 [Compound 174] | 0.17
3 | CC(C)(C)OC(=O)N1CCC(Cc2ccc3c(c2)c(=O)n([C@H]2CC[C@H](O)CC2)c2nc(NCC4CC4)ncc32)CC1 [Compound 206] | 1.28
4 | CCC[C@H](C)Nc1ncc2c3ccc(CN4CCN(C)CC4)cc3c(=O)n([C@H]3CC[C@H](O)CC3)c2n1 [Compound 213, trans-5-(4-hydroxycyclohexyl)-8-((4-methylpiperazin-1-yl)methyl)-3-(((S)-pentan-2-yl)amino)pyrimido[4,5-c]isoquinolin-6(5H)-one] | 0.0304
5 | CC(C)(C)OC(=O)C1CCN(Cc2ccc3c(c2)c(=O)n([C@H]2CC[C@H](O)CC2)c2nc(NCC4CC4)ncc32)CC1 [Compound 201, trans-tert-Butyl 1-((3-((cyclopropylmethyl)amino)-5-(4-hydroxycyclohexyl)-6-oxo-5,6-dihydropyrimido[4,5-c]isoquinolin-8-yl)methyl)piperidine-4-carboxylate] | 0.0725
6 | CC(C)Nc1ncc2c3ccc(Cl)cc3c(=O)n([C@H]3CC[C@H](O)CC3)c2n1 [Compound 193] | 0.957
7 | CCCCNc1ncc2c3ccc(CN4CCN(C)CC4)cc3c(=O)n([C@H]3CC[C@H](NC(C)=O)C3)c2n1 [Compound 233, N-((1S,3S)-3-(3-(butylamino)-8-((4-methylpiperazin-1-yl)methyl)-6-oxopyrimido[4,5-c]isoquinolin-5(6H)-yl)cyclopentyl)acetamide] | 0.512
8 | CCCCNc1ncc2c3ccc(CN4CCN(C)CC4)cc3c(=O)n([C@H]3CC[C@H](C(=O)NC)CC3)c2n1 [Compound 138, trans-4-(3-(Butylamino)-8-((4-methylpiperazin-1-yl)methyl)-6-oxopyrimido[4,5-c]isoquinolin-5(6H)-yl)-N-methylcyclohexane-1-carboxamide] | 0.0688
9 | CCCCNc1ncc2c3ccc(CN4CCN(C)CC4)cc3c(=O)n([C@H]3CCC[C@H](O)CC3)c2n1 [Compound 229, 3-(butylamino)-5-((1S,4S)-4-hydroxycycloheptyl)-8-((4-methylpiperazin-1-yl)methyl)pyrimido[4,5-c]isoquinolin-6(5H)-one] | 0.072
10 | CC(C)Nc1ncc2c3ccc(CN4CCN(C)CC4)cc3c(=O)n([C@H]3CC[C@H](O)CC3)c2n1 [Compound 195, trans-5-(4-Hydroxycyclohexyl)-3-(isopropylamino)-8-((4-methylpiperazin-1-yl)methyl)pyrimido[4,5-c]isoquinolin-6(5H)-one] | 0.0721
11 | CN1CCN(Cc2ccc3c(c2)c(=O)n([C@H]2CC[C@](C)(O)CC2)c2nc(NCCC4CC4)ncc32)CC1 [Compound 29, trans-3-((2-Cyclopropylethyl)amino)-5-(4-hydroxy-4-methylcyclohexyl)-8-((4-methylpiperazin-1-yl)methyl)pyrimido[4,5-c]isoquinolin-6(5H)-one] | 0.0062
12 | CCCCNc1ncc2c3ccc(CN4CCN(C)CC4)cc3c(=O)n([C@H]3CC[C@H](O)CC3)c2n1 [Compound 3, trans-3-(Butylamino)-5-(4-hydroxycyclohexyl)-8-((4-methylpiperazin-1-yl)methyl)pyrimido[4,5-c]isoquinolin-6(5H)-one] | 0.0288
13 | CN1CCN(Cc2ccc3c(c2)c(=O)n([C@H]2CC[C@H](OC(N)=O)CC2)c2nc(NCC4CC4)ncc32)CC1 [Compound 181] | 0.292
14 | O=c1c2cc(OCCCN3CCOCC3)ccc2c2cnc(NCC3CC3)nc2n1[C@H]1CC[C@H](O)CC1 [Compound 208, trans-3-((Cyclopropylmethyl)amino)-5-(4-hydroxycyclohexyl)-8-(3-morpholinopropoxy)pyrimido[4,5-c]isoquinolin-6(5H)-one] | 0.415
15 | CN1CCN(Cc2ccc3c(c2)c(=O)n([C@H]2CC[C@H](O)CC2)c2nc(NC4CC(F)(F)C4)ncc32)CC1 [Compound 12, trans-3-((3,3-Difluorocyclobutyl)amino)-5-(4-hydroxycyclohexyl)-8-((4-methylpiperazin-1-yl)methyl)pyrimido[4,5-c]isoquinolin-6(5H)-one] | 0.116
16 | CN1CC2(C1)CN(c1ccc3c(c1)c(=O)n([C@H]1CC[C@H](O)CC1)c1nc(NC4CC(F)(F)C4)ncc31)C2 [Compound 66, trans-3-((3,3-Difluorocyclobutyl)amino)-5-(4-hydroxycyclohexyl)-8-(6-methyl-2,6-diazaspiro[3.3]heptan-2-yl)pyrimido[4,5-c]isoquinolin-6(5H)-one] | 0.298

Results, then the compound that gave them:

Row | EC50 [µM] | SMILES
17 | 0.149 | O=c1c2cc(CN3CCOCC3)ccc2c2cnc(NCC3CC3)nc2n1[C@H]1CC[C@H](O)CC1 [Compound 45, trans-3-((Cyclopropylmethyl)amino)-5-(4-hydroxycyclohexyl)-8-(morpholinomethyl)pyrimido [4,5-c]isoquinolin-6(5H)-one]
18 | 0.0059 | CCCCNc1ncc2c3ccc(CN4CCN(C)CC4)cc3c(=O)n(C3CCC(C)(O)CC3)c2n1 (stereo not drawn) [Compound 15, trans-3-(Butylamino)-5-(4-hydroxy-4-methylcyclohexyl)-8-((4-methylpiperazin-1-yl)methyl)pyrimido[4,5-c]isoquinolin-6(5H)-one]
19 | 0.152 | CCCCNc1ncc2c3ccc(N4CCN(C)CC4)cc3c(=O)n([C@H]3CC[C@@](C)(O)CC3)c2n1 [Compound 89, cis-3-(Butylamino)-5-(4-hydroxy-4-methylcyclohexyl)-8-(4-methylpiperazin-1-yl)pyrimido[4,5-c]isoquinolin-6(5H)-one]
20 | 11.9 | O=c1c2cc(CN3CC[N@+]4([O-])CC[C@@H]3CC4)ccc2c2cnc(NCC3CC3)nc2n1C1CCC(O)CC1 (relative stereo) [Compound 51, trans-4-((3-((Cyclopropylmethyl)amino)-5-(4-hydroxycyclohexyl)-6-oxo-5,6-dihydropyrimido[4,5-c]isoquinolin-8-yl)methyl)-1,4-diazabicyclo[3.2.2]nonane 1-oxide]
21 | 0.483 | O=c1c2cc(N3CCN(C4CC4)CC3)ccc2c2cnc(NCC3CC3)nc2n1[C@H]1CC[C@H](O)CC1 [Compound 110, trans-3-((Cyclopropylmethyl)amino)-8-(4-cyclopropylpiperazin-1-yl)-5-(4-hydroxycyclohexyl)pyrimido [4,5-c]isoquinolin-6(5H)-one]
22 | 0.0646 | O=c1c2cc(CN3CCn4ncnc4C3)ccc2c2cnc(NCC3CC3)nc2n1[C@H]1CC[C@H](O)CC1 [Compound 151]
23 | 0.0639 | CN1CCN(Cc2ccc3c(c2)c(=O)n([C@H]2CC[C@H](O)CC2)c2nc(NCC4CC4)ncc32)CC1 [Compound 16, trans-3-((Cyclopropylmethyl)amino)-5-(4-hydroxycyclohexyl)-8-((4-methylpiperazin-1-yl)methyl)pyrimido[4,5-c]isoquinolin-6(5H)-one]
24 | 0.0242 | O=c1c2cc(CC3CCN(c4ccncc4)CC3)ccc2c2cnc(NCC3CC3)nc2n1[C@H]1CC[C@H](O)CC1 [Compound 218, trans-3-((Cyclopropylmethyl)amino)-5-(4-hydroxycyclohexyl)-8-((1-(pyridin-4-yl)piperidin-4-yl)methyl)pyrimido[4,5-c]isoquinolin-6(5H)-one]
25 | 1.55 | CCCCNc1ncc2c3ccc(CN4CCN(C)CC4)cc3c(=O)n([C@H]3CC[C@H](C(=O)O)CC3)c2n1 [Compound 132, trans-4-(3-(Butylamino)-8-((4-methylpiperazin-1-yl)methyl)-6-oxopyrimido[4,5-c]isoquinolin-5(6H)-yl)cyclohexane-1-carboxylic Acid]
26 | 0.221 | O=c1c2cc(CN3CCS(=O)(=O)CC3)ccc2c2cnc(NCC3CC3)nc2n1[C@H]1CC[C@H](O)CC1 [Compound 160]
27 | 0.0183 | CCC[C@H](C)Nc1ncc2c3ccc(CN4CCN(c5ccncc5)CC4)cc3c(=O)n([C@H]3CC[C@H](O)CC3)c2n1 [Compound 219, trans-5-(4-Hydroxycyclohexyl)-3-(((S)-pentan-2-yl)amino)-8-((4-(pyridin-4-yl)piperazin-1-yl)methyl)pyrimido[4,5-c]isoquinolin-6(5H)-one]
